Legend:
[1] = system: ethylene receptors; assay: Banana ripening protection from ethylene; type: in vivo; settings: 24 hours of exposure in 3-liter jar, then 333 microliters per liter of ethylene for 12-15 hours; banana peels
Experimental: Compounds which block the ethylene receptors can prevent bananas from ripening. Treatment of bananas with 30 nl/l of Compound 1 protected banana peels from the effects of ethylene. The bananas were treated using the following general procedure:
An ether solution of a known amount of the active compound was placed on filter paper in a 3-liter jar. The amount of ether used was without effect when applied alone on a banana contained in a 3-liter jar. The jar was sealed and the banana was removed after 24 hours of exposure. The banana was then treated with 333 microliters per liter of ethylene in a 3-liter jar for 12-15 hours. It was then observed for ripening. The minimum concentration that protected the banana was determined.

[2] = system: Patio variety tomato seedlings; assay: Tomato Epinasty Test, volatile gas treatment; type: in vivo; settings: applied as a gas at 1000 ppm; ethylene 10 ppm v/v after four hours, scored sixteen hours later
Experimental: Objective: The test procedure is designed to determine the ability of an experimental compound to block the epinastic growth response induced by ethylene in tomato plants when the experimental compound is administered either as a volatile gas or as a component of a spray solution. Treatment chambers are of an appropriate size for the test plants and are airtight. Each is fitted with a reusable septum to be used for injection of ethylene. Test plants are Patio variety tomato seedlings planted two plants per three inch square plastic pot. Volatile gas treatment entails placing two pots of Patio var. tomatoes into a polystyrene 4.8L volume treatment chamber along with one-half (upper or lower section) of a 50×9 mm plastic Petri dish containing a Gelman filter pad. The appropriate amount of experimental compound, dissolved in 1.0 ml acetone, is pipetted onto the filter pad and the chamber immediately sealed. Four hours later ethylene gas equal to 10 ppm v/v final concentration is injected into the sealed chamber. Sixteen hours later the chambers are opened in an exhaust hood, allowed to air and the plants scored visually for the degree of protection against ethylene-induced epinasty conferred by the experimental compound when compared to ethylene treated and untreated controls on a scale of 0 to 10. A rating of 10 means complete protection. […]

| Structure (SMILES) | minimum concentration that protected the banana [1] | rating of protection against ethylene-induced epinasty (scale of 0 to 10; 10 means complete protection) [2] |
| --- | --- | --- |
| OCC1=CC1 [Compound 1, 1-Hydroxymethylcyclopropene] | 30 nl/l | – |
| OCCC1=CC1 [Compound 2, 1-(2-Hydroxyethyl)-cyclopropene] | – | 10 |

Source: patent US20040072694A1, “Method to inhibit ethylene responses in plants” (priority 2002, published 2004)
